Results on 40 compounds are retold here after publication PMC4848495, “Identification of a Potent and Broad-Spectrum Hepatitis C Virus Fusion Inhibitory Peptide from the E2 Stem Domain” (Scientific Reports, 2016).

Residues, ends and D or L forms follow the SMILES beside them.

Sequence of HCV glycoprotein E1E2-mediated membrane fusion (P27958 384-746): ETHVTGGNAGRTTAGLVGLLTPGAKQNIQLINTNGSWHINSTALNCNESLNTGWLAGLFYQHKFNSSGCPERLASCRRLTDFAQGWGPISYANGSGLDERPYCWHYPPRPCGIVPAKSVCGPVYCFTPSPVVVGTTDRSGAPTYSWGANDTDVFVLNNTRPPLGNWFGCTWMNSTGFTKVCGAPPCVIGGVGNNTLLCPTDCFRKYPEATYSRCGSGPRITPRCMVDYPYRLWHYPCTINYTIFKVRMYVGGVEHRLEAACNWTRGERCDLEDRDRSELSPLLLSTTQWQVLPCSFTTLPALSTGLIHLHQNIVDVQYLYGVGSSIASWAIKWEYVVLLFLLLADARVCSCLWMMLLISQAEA
Sequence of HCV glycoprotein E1E2-mediated membrane fusion (P27958 192-383): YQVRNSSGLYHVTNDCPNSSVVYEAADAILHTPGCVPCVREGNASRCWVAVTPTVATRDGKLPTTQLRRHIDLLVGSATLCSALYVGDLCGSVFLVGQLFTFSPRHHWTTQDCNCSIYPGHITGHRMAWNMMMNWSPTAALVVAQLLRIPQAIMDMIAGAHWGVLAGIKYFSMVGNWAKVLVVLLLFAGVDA

One test concerns the target HCV glycoprotein E1E2-mediated membrane fusion (Hepatitis C virus genotype 1a, UniProt P27958). Briefly: cell-based. The class given is cell-based, Hepatitis C virus (strain H77).
Details: not given
As for `CC[C@H](C)[C@H](NC(=O)[C@H](C)NC(=O)[C@H](Cc1c[nH]c2ccccc12)NC(=O)[C@H](CO)NC(=O)[C@H](C)NC(=O)[C@@H](NC(=O)[C@H](CO)NC(=O)[C@H](CO)NC(=O)CNC(=O)[C@@H](NC(=O)CNC(=O)[C@H](Cc1ccc(O)cc1)NC(=O)[C@H](CC(C)C)NC(=O)[C@H](Cc1ccc(O)cc1)NC(=O)[C@H](CCC(N)=O)NC(=O)[C@@H](NC(=O)[C@H](CC(=O)O)NC(=O)[C@@H](NC(=O)[C@@H](NC(=O)[C@H](CC(N)=O)NC(=O)[C@H](CCC(N)=O)NC(=O)[C@H](Cc1c[nH]cn1)NC(=O)[C@H](CC(C)C)NC(=O)[C@H](Cc1c[nH]cn1)NC(=O)[C@@H](NC(=O)[C@H](CC(C)C)NC(=O)CNC(=O)[C@@H](NC(=O)[C@H](CO)NC(=O)[C@H](CC(C)C)NC(=O)[C@H](C)NC(=O)[C@@H]1CCCN1C(=O)[C@H](CC(C)C)NC(=O)[C@@H](N)[C@@H](C)O)[C@@H](C)O)[C@@H](C)CC)[C@@H](C)CC)C(C)C)C(C)C)C(C)C)[C@@H](C)CC)C(=O)N[C@@H](CCCCN)C(=O)O` [E28] (H-TLPALSTGLIHLHQNIVDVQYLYGVGSSIASWAIK-OH; N-terminus and C-terminus assumed), the EC50 (commonly the midpoint of the concentration-response curve) was more than 20 µM.

Still in this test, the particulars now being: Cre/stop fusion system, peptide 1 µM, luciferase divided by solvent control (0.5% DMSO).
For the compound “LIVMLLF AGVDGGTYVTGGTMAKNTLGI TS [HCV-13, 30-mer of overlapping E1E2 peptide library]”, the “% of fusion” value was found to be 60.1%.

As to “SLNTGFLAALFYVHKFNSSGCPERMASCSP [HCV-17, 30-mer of overlapping E1E2 peptide library]”, the “% of fusion” value is 66.7%.

With “HVTGHRMAWDMMMNWSP TAALVVSQLLRIP [HCV-9, 30-mer of overlapping E1E2 peptide library]”, the “% of fusion” value is 56.9%.

As to “VTGGTM AKNTLGI TSLFSP GSSQKIQLVNT [HCV-14, 30-mer of overlapping E1E2 peptide library]”, the “% of fusion” value turned out to be 69.6%.

In the case of “EYVLLLFLLLADARVCACLWMMLLIAQAEA [HCV-36, 30-mer of overlapping E1E2 peptide library]”, the “% of fusion” value amounted to 10.7%.

With “RP CGIVP AAQVC GP VYCFTP SPVVVGTTDR [HCV-21, 30-mer of overlapping E1E2 peptide library]”, the “% of fusion” value is 63.7%.

As for “CTWMNSTGF TKTC GGP P CNIGGI GNKTLTC [HCV-25, 30-mer of overlapping E1E2 peptide library]”, the “% of fusion” value came out at 87.4%.

Take “CSNASIVYEAADMIMHTP GC VP CVRENNSS [HCV-2, 30-mer of overlapping E1E2 peptide library]”: the “% of fusion” value came to 80.8%.

Regarding “GAAALCSAMYV GDLC GSVFLVAQLF TFSP R [HCV-6, 30-mer of overlapping E1E2 peptide library]”, the “% of fusion” value was 81.5%.

Turning to “TGLIHLHQNVVDVQYLYGI GSAVVSFAIKW [HCV-34, 30-mer of overlapping E1E2 peptide library]”, the “% of fusion” value is 24.9%.

For the compound “NGS WHINR TALNCNDSLNTGFLAALFYVHK [HCV-16, 30-mer of overlapping E1E2 peptide library]”, the “% of fusion” value was determined as 64.2%.

With “RCWVALTP TLAARNASVP TTTIRRHVDLLV [HCV-4, 30-mer of overlapping E1E2 peptide library]”, the “% of fusion” value was found to be 85.2%.

On to “P TDCF RKHP EATY TKC GS GP W LTP RCLV HY [HCV-27, 30-mer of overlapping E1E2 peptide library]”, for which the “% of fusion” value was determined as 65.1%.

“AAC NW TR GERCN LEDRDRS E LS P LLLS TTE [HCV-31, 30-mer of overlapping E1E2 peptide library]”: the “% of fusion” value was found to be 56.9%.

As to “AGLAYYSMVGNWAKVLIVMLLF AGVDGGTY [HCV-12, 30-mer of overlapping E1E2 peptide library]”, the “% of fusion” value came to 122.8%.

Turning to “CGS GP WLTP RCLVHYP YRLWHYP CTVNFTI [HCV-28, 30-mer of overlapping E1E2 peptide library]”, the “% of fusion” value stood at 82.2%.

Take “WQVLP CSFTTLP ALS TGLIHLHQNVVDVQY [HCV-33, 30-mer of overlapping E1E2 peptide library]”: the “% of fusion” value is listed as 9.7%.

Regarding “SVP TTTIRRHVDLLV GAAALC SAMYVGDLC [HCV-5, 30-mer of overlapping E1E2 peptide library]”, the “% of fusion” value stood at 84.7%.

In the case of “P YRLWHYP CTVNFTIFKVRMYVGGVEHRLE [HCV-29, 30-mer of overlapping E1E2 peptide library]”, the “% of fusion” value came out at 83.2%.

In the case of “IDAF AQGWGP ITYNESHSSDQRP YCWHYAP [HCV-19, 30-mer of overlapping E1E2 peptide library]”, the “% of fusion” value was found to be 129.8%.

Regarding “RHETVQDCNCSIYP GHVTGHRMAWDMMMNW [HCV-8, 30-mer of overlapping E1E2 peptide library]”, the “% of fusion” value worked out at 76.9%.

“FNSSGCPERMASCSPIDAFAQGWGPITYNE [HCV-18, 30-mer of overlapping E1E2 peptide library]”: the “% of fusion” value turned out to be 70.8%.

With “PPCNIGGI GNKTLTCP TDCFRKHP EATYTK [HCV-26, 30-mer of overlapping E1E2 peptide library]”, the “% of fusion” value is 121.6%.

For the compound “SHSSDQRP YCWHYAP RP CGI VP AAQVC GP V [HCV-20, 30-mer of overlapping E1E2 peptide library]”, the “% of fusion” value stood at 65.8%.

For “YEVRNVSGVYHVTNDCSNAS IVYEAADMIM [HCV-1, 30-mer of overlapping peptide library covering full-length E1E2 of HCV strain H77]”, the “% of fusion” value was 56.4%.

In the case of “QAVVDMVAGAHWGVLAGLAYYSMVGNWAKV [HCV-11, 30-mer of overlapping E1E2 peptide library]”, the “% of fusion” value was 121.6%.

Regarding “LYGIGS AVVSFAIKWEYVLLLFLLLADARV [HCV-35, 30-mer of overlapping E1E2 peptide library]”, the “% of fusion” value is given as 40.0%.

Turning to “SP TAALVVSQLLRIP QAVVDMVAGAHWGVL [HCV-10, 30-mer of overlapping E1E2 peptide library]”, the “% of fusion” value is reported as 78.8%.

As for “RDRS ELS P LLLS TTEW QV LP CS F TTLP ALS [HCV-32, 30-mer of overlapping E1E2 peptide library]”, the “% of fusion” value is recorded as 11 . 2%.

Consider “FGVP TYSWGENE TDVLLLNNTRPP QGNWFG [HCV-23, 30-mer of overlapping E1E2 peptide library]”, for which the “% of fusion” value worked out at 145.0%.

As to “GSVFLVAQLFTFSPRRHETVQDCNCSIYPG [HCV-7, 30-mer of overlapping E1E2 peptide library]”, the “% of fusion” value is listed as 85.5%.

Regarding “LFSP GSSQKIQLVNTNGS WHI NRTALNCND [HCV-15, 30-mer of overlapping E1E2 peptide library]”, the “% of fusion” value is reported as 56.0%.

Consider “FKVRMYVGGVEHRLE AACNWTRGERCNLED [HCV-30, 30-mer of overlapping E1E2 peptide library]”, for which the “% of fusion” value is 99.6%.

“HTP GCVP CVRENNSSRCWVALTP TLAAR NA [HCV-3, 30-mer of overlapping E1E2 peptide library]”: the “% of fusion” value worked out at 64.3%.

Consider “YCFTP SPVVVGTTDRF GVP TYSWGENETDV [HCV-22, 30-mer of overlapping E1E2 peptide library]”, for which the “% of fusion” value was 79.0%.

The test system of the next test is HCVcc (Jc1-luc).
Experiment: not given
To be noted: Huh7.5.1 cells, various concentration ratios, CalcuSyn.
With `CC(C)OC(=O)[C@H](C)N[P@](=O)(OC[C@H]1O[C@@H](n2ccc(=O)[nH]c2=O)[C@](C)(F)[C@@H]1O)Oc1ccccc1` [Sofosbuvir], the “effect on inhibition of HCV infection in combination with E27” value (from here on “effect on inhibition of HCV infection”) is listed as “slight antagonism”.

For `COc1ccc2c(O[C@@H]3C[C@H]4C(=O)N[C@]5(C(=O)NS(=O)(=O)C6CC6)C[C@H]5/C=C\CCCCN(C)C(=O)[C@@H]4C3)cc(-c3nc(C(C)C)cs3)nc2c1C` [Simeprevir], the “effect on inhibition of HCV infection” value is “slight antagonism”.

Take `CCC[C@H](NC(=O)[C@@H]1[C@H]2CCC[C@H]2CN1C(=O)[C@@H](NC(=O)[C@@H](NC(=O)c1cnccn1)C1CCCCC1)C(C)(C)C)C(=O)C(=O)NC1CC1` [Telaprevir]: the “effect on inhibition of HCV infection” value is on record as “slightly synergistic trend”.

With `NC(=O)c1ncn([C@@H]2O[C@H](CO)[C@@H](O)[C@H]2O)n1` [Ribavirin], the “effect on inhibition of HCV infection” value is given as “slightly synergistic trend”.
